Source: article PMC3136361 (Journal of medicinal chemistry, 2011)
Where “and” joins values, the source holds several entries; their conditions need not be identical. Equal entries are not always repeated.

Experiments:
[1] = Intrinsic clearance in mouse hepatocytes; assay type: in vitro ADME
[2] = tested on: SREBP; experiment: SREBP-responsive; conditions: luciferase reporter assay, CHO-K1 cells
[3] = Parallel artificial membrane permeability assay; conditions: for passive permeability through artificial membrane (in words): PAMPA
[4] = tested on: ob/ob mice; conditions: male ob/ob mice, oral in chow, 8 wk
[5] = tested on: SREBP-responsive genes in DU145 cells; experiment: Real-time RT-PCR of SREBP-responsive genes in DU145 cells; assay type: cell-based, human

## CCCc1cc(-c2nc(-c3ccc(C)cc3)cs2)ccn1 [Compound 1, fatostatin]
[1]
  metabolic stability (in words): low metabolic stability

## CCCc1cc(-c2nc(-c3ccccc3)cs2)ccn1 [Compound 5a]
[2]
  decrease in potency relative to fatostatin: fourfold

## Cc1ccc(-c2csc(-c3ccccc3)n2)cc1 [Compound 12]
[2]
  decrease in potency relative to fatostatin: 3.3 fold

## CCCc1cc(-c2ccc(-c3ccc(C)cc3)cc2)ccn1 [Compound 15]
[2]
  activity in reporter assay (in words): large loss of activity

## CCCc1cc(-c2nc(-c3ccc(NC(C)C)cc3)cs2)ccn1 [Compound 20, N-Isopropyl-4-(2-(2-propylpyridin-4-yl)thiazol-4-yl)aniline]
[1]
  metabolic stability (in words): low metabolic stability
[3]
  passive permeability through artificial membrane (in words): moderate

## CCCc1cc(-c2nc(-c3ccc(NS(C)(=O)=O)cc3)cs2)ccn1 [Compound 24, N-(4-(2-(2-Propylpyridin-4-yl)thiazol-4-yl)phenyl)methanesulfonamide]
[4]
  less weight than control mice: 8–9%
[5]; RPL13A, B2M, GAPDH
  effect on transcription of three control genes unrelated to SREBP: no significant effect
[5]; real-time RT-PCR, all nine genes
  downregulation of transcription of nine SREBP-responsive genes: at least 25%
[1]
  metabolic stability (in words): moderately stable
[3]
  passive permeability through artificial membrane (in words): high

## CC(=O)CC(c1ccccc1)c1c(O)c2ccccc2oc1=O (stereo not drawn) [Warfarin, reference compound]
[3]; Warfarin 10 μM, control for membrane integrity, run alongside each compound
  Reference PAMPA Papp: 5.34 10^−6 cm/sec and 5.58 10^−6 cm/sec
